Entries after “also recorded” stand apart in the source; their conditions may differ.
Experiments:
[1] = tested on: murine fibroblast (NIH-3T3) cells; experiment: MTT cytotoxicity assay in murine fibroblasts; type: cell-based; parameters: Emax: dose or concentration left out as unconfirmed
In short: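 NIH-3T3 cells exposed 24 h to samples at 25–800 µg/mL in 3% DMSO, with 3% DMSO as control. MTT (5 mg/mL stock) added for 2 h, formazan dissolved in DMSO, absorbance read at 595 nm.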

[2] = tested on: J774A.1 cells; experiment: Cell death mechanism, annexin-V FITC / propidium iodide staining by flow cytometry; type: cell-based, mouse; settings: J774A.1, 24 h; piplartine 25 μg/mL, 14B 400 μg/mL
Method: Cells were then treated with 2 µL of annexin-V FITC (Apoptosis Detection Kit; BD Biosciences, Franklin Lakes, NJ, USA) and 2 µL of propidium iodide (PI, 50 µg/mL) for 15 min in the dark at room temperature. Next, 100 µL binding buffer was added and samples were analysed by flow cytometry (BD LSFortessa^TM, Franklin Lakes, NJ, USA). A total of 20,000 events were collected per sample.

[3] = tested on: 49-day-old S. mansoni adult worms; experiment: In vitro experiments with adult worms of S. mansoni (mortality, motor activity); type: cell-based, Schistosoma mansoni; settings: for Dead Worms (%) F / Motor Activity Reduction (%) Significant F / Motor Activity Reduction (%) Slight F: female worms; for Dead Worms (%) M / Motor Activity Reduction (%) Significant M / Motor Activity Reduction (%) Slight M: male worms
In short: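 BH-strain worm pairs recovered from hamsters 49 days post-infection, washed in RPMI 1640 with penicillin, streptomycin and amphotericin B, and cultured as mated pairs with or without drug for 96 h. Motor activity changes and death were scored by microscopy.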

[4] = tested on: S. mansoni schistosomula and adult worms; parameters: method as in PMID 20832410, PMID 22796749; settings: cited from earlier work
[5] = tested on: mouse BALB/cN macrophage (J774A.1) cell line; experiment: Cell viability by flow cytometry in macrophages; settings: 24 h, 25, 100 and 400 µg/mL, vs DMEM control

SMILES: COc1cc(/C=C/C(=O)N2CCC=CC2=O)cc(OC)c1OC [Piplartine, 3,4,5-trimethoxycinnamoyl-N-dihydropyridin-2-one]
- effect on NIH-3T3 cell viability (in words) ([1]; MTT, 24 h exposure, 25 to 800 µg/mL): decreased cell viability after 24 h of exposure, exhibiting considerable toxicity; also recorded: showed toxicity at all concentrations tested
- Emax ([1]; Mus musculus, NIH3T3, 24 h): 96.94 ± 0.12%
- annexin-V FITC staining (apoptosis marker) vs DMEM negative control (in words) [2]: significant (p < 0.05) increase in annexin-V FITC staining
- Dead Worms (%) F ([3]; 5 µM, 24 h): 0%
- Motor Activity Reduction (%) Significant F ([3]; 5 µM, 24 h): 0%
- Motor Activity Reduction (%) Slight F ([3]; 5 µM, 24 h): 100%
- Dead Worms (%) M ([3]; 5 µM, 24 h): 0%
- Motor Activity Reduction (%) Significant M ([3]; 5 µM, 24 h): 0%
- Motor Activity Reduction (%) Slight M ([3]; 5 µM, 24 h): 100%
- Dead Worms (%) F ([3]; 5 µM, 48 h): 0%
- Motor Activity Reduction (%) Significant F ([3]; 5 µM, 48 h): 0%
- Motor Activity Reduction (%) Slight F ([3]; 5 µM, 48 h): 100%
- Dead Worms (%) M ([3]; 5 µM, 48 h): 0%
- Motor Activity Reduction (%) Significant M ([3]; 5 µM, 48 h): 0%
- Motor Activity Reduction (%) Slight M ([3]; 5 µM, 48 h): 100%
- Dead Worms (%) F ([3]; 5 µM, 72 h): 0%
- Motor Activity Reduction (%) Significant F ([3]; 5 µM, 72 h): 0%
- Motor Activity Reduction (%) Slight F ([3]; 5 µM, 72 h): 100%
- Dead Worms (%) M ([3]; 5 µM, 72 h): 0%
- Motor Activity Reduction (%) Significant M ([3]; 5 µM, 72 h): 0%
- Motor Activity Reduction (%) Slight M ([3]; 5 µM, 72 h): 100%
- Dead Worms (%) F ([3]; 5 µM, 96 h): 60%
- Motor Activity Reduction (%) Significant F ([3]; 5 µM, 96 h): 60%
- Motor Activity Reduction (%) Slight F ([3]; 5 µM, 96 h): 0%
- Dead Worms (%) M ([3]; 5 µM, 96 h): 60%
- Motor Activity Reduction (%) Significant M ([3]; 5 µM, 96 h): 60%
- Motor Activity Reduction (%) Slight M ([3]; 5 µM, 96 h): 0%
- Dead Worms (%) F ([3]; 10 µM, 24 h): 100%
- Motor Activity Reduction (%) Significant F ([3]; 10 µM, 24 h): 100%
- Motor Activity Reduction (%) Slight F ([3]; 10 µM, 24 h): 0%
- Dead Worms (%) M ([3]; 10 µM, 24 h): 100%
- Motor Activity Reduction (%) Significant M ([3]; 10 µM, 24 h): 100%
- Motor Activity Reduction (%) Slight M ([3]; 10 µM, 24 h): 0%
- Dead Worms (%) F ([3]; 10 µM, 48 h): 100%
- Motor Activity Reduction (%) Significant F ([3]; 10 µM, 48 h): 100%
- Motor Activity Reduction (%) Slight F ([3]; 10 µM, 48 h): 0%
- Dead Worms (%) M ([3]; 10 µM, 48 h): 100%
- Motor Activity Reduction (%) Significant M ([3]; 10 µM, 48 h): 100%
- Motor Activity Reduction (%) Slight M ([3]; 10 µM, 48 h): 0%
- Dead Worms (%) F ([3]; 10 µM, 72 h): 100%
- Motor Activity Reduction (%) Significant F ([3]; 10 µM, 72 h): 100%
- Motor Activity Reduction (%) Slight F ([3]; 10 µM, 72 h): 0%
- Dead Worms (%) M ([3]; 10 µM, 72 h): 100%
- Motor Activity Reduction (%) Significant M ([3]; 10 µM, 72 h): 100%
- Motor Activity Reduction (%) Slight M ([3]; 10 µM, 72 h): 0%
- Dead Worms (%) F ([3]; 10 µM, 96 h): 100%
- Motor Activity Reduction (%) Significant F ([3]; 10 µM, 96 h): 100%
- Motor Activity Reduction (%) Slight F ([3]; 10 µM, 96 h): 0%
- Dead Worms (%) M ([3]; 10 µM, 96 h): 100%
- Motor Activity Reduction (%) Significant M ([3]; 10 µM, 96 h): 100%
- Motor Activity Reduction (%) Slight M ([3]; 10 µM, 96 h): 0%
- concentrations active against S. mansoni ([3]; adult worms): 5 to 10 µM
- activity against S. mansoni adult worms (in words) ([3]; analogues 50, 25, 10 and 5 μM, piplartine 5 and 10 μM, up to 96 h): showed activity against the parasite 24 h after incubation
- concentration with in vitro schistosomicidal activity [4]: 10 µM
- effect on J774A.1 cell viability (in words) [5]: significantly (p < 0.05) affected cell viability at concentrations of 25 and 100 µg/mL
- effect on J774A.1 cell viability (in words) ([5]; listed as piplartine): more toxic to mammalian cells than the analogues
